{"source": "paper PMC9308932", "about": "“Human liver microsomes study on the inhibitory effect of plantainoside D on the activity of cytochrome P450 activity” (BMC Complementary Medicine and Therapies, 2022)", "type_in_all_cases": "in vitro ADME", "key": {"[1]": {"molecular_target": "T1, CYP1A2 (Homo sapiens, UniProt P05177)", "T1 construct": "Pooled human liver microsomes were obtained from BD Biosciences Discovery Labware; tissue BD Biosciences Discovery Labware; host or cells: pooled human liver microsomes", "T1 sequence (P05177 1-516)": "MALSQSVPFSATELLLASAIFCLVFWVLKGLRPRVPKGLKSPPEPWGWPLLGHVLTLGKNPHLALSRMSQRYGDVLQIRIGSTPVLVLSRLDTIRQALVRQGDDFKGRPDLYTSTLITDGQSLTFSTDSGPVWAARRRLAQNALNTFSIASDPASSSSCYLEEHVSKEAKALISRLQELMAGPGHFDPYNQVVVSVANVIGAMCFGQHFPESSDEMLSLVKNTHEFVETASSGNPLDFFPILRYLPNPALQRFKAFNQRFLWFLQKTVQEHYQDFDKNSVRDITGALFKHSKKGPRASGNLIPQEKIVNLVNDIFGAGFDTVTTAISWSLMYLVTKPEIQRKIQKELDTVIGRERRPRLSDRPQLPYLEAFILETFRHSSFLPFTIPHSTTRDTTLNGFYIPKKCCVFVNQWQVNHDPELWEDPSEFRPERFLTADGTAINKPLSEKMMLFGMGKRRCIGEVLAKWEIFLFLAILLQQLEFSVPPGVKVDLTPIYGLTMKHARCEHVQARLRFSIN", "experiment": "Concentration-dependent inhibition of CYP1A2 (phenacetin O-deethylation) in human liver microsomes", "method": "(§1) The activity of P450s was evaluated by corresponding metabolites using HPLC with Agilent 1260 Series Rapid Resolution HPLC. The reaction system was prepared with the following compositions: HLMs with certain protein concentrations, specific substrates of different isoenzymes, PBS buffer solution, plantainoside D or specific inhibitors, and an NADPH generating system as previously reported. Besides dextromethorphan and quinidine were dissolved in water, other substrated, inhibitors, and plantainoside D were dissolved in methanol with a final concentration of 1% (v/v). Before initiating the reaction, there was a preincubation of 3 min followed by the addition of the NADPH-generating system.\n(§2) The effect of plantainoside D was primarily evaluated with the concentration of 0, 2.5, 5, 10, 25, 50, and 100 μM and the values of IC50 was evaluated. Furthermore, the inhibition model of P450 isoenzymes was estimated in the presence of various concentrations of corresponding substrates and fitting with Lineweaver–Burk and Dixon plots, and the inhibition constant was calculated by the following equations:\n(§3) v=VmaxS/Km1+I/Ki+S for competitive inhibition;\n(§4) v=(VmaxS)/[Km+S(1+I/KiKI)] for non-competitive inhibition.\n(§5) where I is the concentration of plantainoside D, Ki is the inhibition constant, S is the concentration of the substrate, and Km is the substrate concentration at half the maximum velocity (Vmax) of the reaction."}, "[2]": {"molecular_target": "T2, CYP2D6 (Homo sapiens, UniProt P10635)", "T2 construct": "Pooled human liver microsomes were obtained from BD Biosciences Discovery Labware; tissue BD Biosciences Discovery Labware; host or cells: pooled human liver microsomes", "T2 sequence (P10635 whole entry)": "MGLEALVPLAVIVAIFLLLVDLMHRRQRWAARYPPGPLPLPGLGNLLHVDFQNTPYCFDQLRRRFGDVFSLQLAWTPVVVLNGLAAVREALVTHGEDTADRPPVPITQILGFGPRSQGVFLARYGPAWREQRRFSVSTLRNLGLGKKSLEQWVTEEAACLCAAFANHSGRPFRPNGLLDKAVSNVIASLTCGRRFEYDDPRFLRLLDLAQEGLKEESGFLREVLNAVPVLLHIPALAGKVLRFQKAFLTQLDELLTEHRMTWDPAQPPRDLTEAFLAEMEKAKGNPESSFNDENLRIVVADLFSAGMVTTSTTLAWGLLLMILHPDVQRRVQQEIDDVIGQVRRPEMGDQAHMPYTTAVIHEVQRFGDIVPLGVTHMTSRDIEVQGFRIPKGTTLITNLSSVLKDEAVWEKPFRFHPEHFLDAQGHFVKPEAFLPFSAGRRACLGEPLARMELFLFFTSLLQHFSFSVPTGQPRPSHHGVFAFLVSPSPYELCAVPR", "experiment": "Concentration-dependent inhibition of CYP2D6 (dextromethorphan O-demethylation) in human liver microsomes", "method": "as §1, §2, §3, §4, §5"}, "[3]": {"molecular_target": "T3, CYP3A (Homo sapiens, UniProt P08684)", "T3 sequence (P08684 2-503)": "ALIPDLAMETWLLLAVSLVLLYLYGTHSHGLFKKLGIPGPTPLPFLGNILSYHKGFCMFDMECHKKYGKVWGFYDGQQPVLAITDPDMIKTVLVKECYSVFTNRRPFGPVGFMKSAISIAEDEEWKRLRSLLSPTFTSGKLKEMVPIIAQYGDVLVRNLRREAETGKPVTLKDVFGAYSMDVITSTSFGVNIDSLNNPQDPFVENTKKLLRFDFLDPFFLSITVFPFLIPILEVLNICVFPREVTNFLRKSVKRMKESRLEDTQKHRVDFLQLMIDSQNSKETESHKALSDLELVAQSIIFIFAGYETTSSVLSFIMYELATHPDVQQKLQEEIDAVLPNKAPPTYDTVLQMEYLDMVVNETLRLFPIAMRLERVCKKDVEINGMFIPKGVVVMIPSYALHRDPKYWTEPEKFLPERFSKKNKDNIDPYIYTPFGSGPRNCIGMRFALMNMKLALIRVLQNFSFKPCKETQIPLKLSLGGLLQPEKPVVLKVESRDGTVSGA", "experiment": "Concentration-dependent inhibition of CYP3A (testosterone 6β-hydroxylation) in human liver microsomes", "method": "as §1, §2, §3, §4, §5"}, "[4]": {"molecular_target": "T4, CYP2A6 (Homo sapiens, UniProt P11509)", "T4 construct": "Pooled human liver microsomes were obtained from BD Biosciences Discovery Labware; tissue BD Biosciences Discovery Labware; host or cells: pooled human liver microsomes", "T4 sequence (P11509 1-494)": "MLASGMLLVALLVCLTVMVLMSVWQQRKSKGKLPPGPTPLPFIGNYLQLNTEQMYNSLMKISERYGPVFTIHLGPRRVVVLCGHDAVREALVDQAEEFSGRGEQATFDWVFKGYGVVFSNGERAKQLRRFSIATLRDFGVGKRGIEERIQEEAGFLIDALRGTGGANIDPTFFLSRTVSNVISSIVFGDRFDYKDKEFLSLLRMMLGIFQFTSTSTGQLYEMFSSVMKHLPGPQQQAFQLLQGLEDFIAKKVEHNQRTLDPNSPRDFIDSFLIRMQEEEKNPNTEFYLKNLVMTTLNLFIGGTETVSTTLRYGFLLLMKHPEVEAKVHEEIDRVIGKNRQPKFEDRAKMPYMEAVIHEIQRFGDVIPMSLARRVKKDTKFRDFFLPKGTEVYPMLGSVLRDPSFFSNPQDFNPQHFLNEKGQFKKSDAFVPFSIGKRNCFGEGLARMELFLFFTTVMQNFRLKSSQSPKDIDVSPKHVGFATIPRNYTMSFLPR", "experiment": "CYP2A6 activity (coumarin 7-hydroxylation) in human liver microsomes", "details": "0-100 μM plantainoside D", "method": "as §1, with “system. [table] [table] […] Furthermore, the inhibition model of P450 isoenzymes was estimated in the presence of various concentrations of corresponding substrates and fitting with Lineweaver–Burk and Dixon plots, and the inhibition constant was calculated by the following equations: […]” for “system.”"}, "[5]": {"molecular_target": "T5, CYP2B6 (Homo sapiens, UniProt P20813)", "T5 construct": "Pooled human liver microsomes were obtained from BD Biosciences Discovery Labware; tissue BD Biosciences Discovery Labware; host or cells: pooled human liver microsomes", "T5 sequence (P20813 1-491)": "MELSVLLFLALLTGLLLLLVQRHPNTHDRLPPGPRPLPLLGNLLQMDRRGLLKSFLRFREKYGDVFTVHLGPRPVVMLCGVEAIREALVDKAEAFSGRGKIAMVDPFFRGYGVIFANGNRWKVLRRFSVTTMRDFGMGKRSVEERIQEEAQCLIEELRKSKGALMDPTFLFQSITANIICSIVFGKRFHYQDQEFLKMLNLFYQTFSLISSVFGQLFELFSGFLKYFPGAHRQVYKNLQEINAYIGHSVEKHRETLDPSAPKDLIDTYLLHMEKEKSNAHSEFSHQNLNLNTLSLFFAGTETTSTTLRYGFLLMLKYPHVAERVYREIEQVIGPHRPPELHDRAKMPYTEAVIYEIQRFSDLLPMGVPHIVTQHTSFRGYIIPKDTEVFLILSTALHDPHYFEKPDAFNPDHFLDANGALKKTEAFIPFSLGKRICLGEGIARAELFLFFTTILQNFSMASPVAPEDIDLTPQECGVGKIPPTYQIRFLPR", "experiment": "CYP2B6 activity (bupropion hydroxylation) in human liver microsomes", "details": "0-100 μM plantainoside D", "method": "as §1, with “system. [table] [table] […] Furthermore, the inhibition model of P450 isoenzymes was estimated in the presence of various concentrations of corresponding substrates and fitting with Lineweaver–Burk and Dixon plots, and the inhibition constant was calculated by the following equations: […]” for “system.”"}, "[6]": {"molecular_target": "T6, CYP2C8 (Homo sapiens, UniProt P10632)", "T6 construct": "Pooled human liver microsomes were obtained from BD Biosciences Discovery Labware; tissue BD Biosciences Discovery Labware; host or cells: pooled human liver microsomes", "T6 sequence (P10632 1-490)": "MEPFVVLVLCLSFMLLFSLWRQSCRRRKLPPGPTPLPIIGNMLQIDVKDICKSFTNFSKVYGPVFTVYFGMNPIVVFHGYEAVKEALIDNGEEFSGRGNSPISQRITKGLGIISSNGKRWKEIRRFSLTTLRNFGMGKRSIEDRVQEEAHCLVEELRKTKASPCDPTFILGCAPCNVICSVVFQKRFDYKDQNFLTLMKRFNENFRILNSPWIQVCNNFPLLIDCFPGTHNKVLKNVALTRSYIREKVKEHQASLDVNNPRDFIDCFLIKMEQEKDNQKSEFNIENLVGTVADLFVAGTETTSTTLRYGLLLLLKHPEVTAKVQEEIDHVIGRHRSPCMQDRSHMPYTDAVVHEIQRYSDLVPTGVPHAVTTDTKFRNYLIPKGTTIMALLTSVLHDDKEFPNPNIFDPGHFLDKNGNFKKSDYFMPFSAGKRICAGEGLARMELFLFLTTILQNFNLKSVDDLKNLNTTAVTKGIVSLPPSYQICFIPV", "experiment": "CYP2C8 activity (paclitaxel 6α-hydroxylation) in human liver microsomes", "details": "0-100 μM plantainoside D", "method": "as §1, with “system. [table] [table] […] Furthermore, the inhibition model of P450 isoenzymes was estimated in the presence of various concentrations of corresponding substrates and fitting with Lineweaver–Burk and Dixon plots, and the inhibition constant was calculated by the following equations: […]” for “system.”"}, "[7]": {"molecular_target": "T7, CYP2C9 (Homo sapiens, UniProt P11712)", "T7 construct": "Pooled human liver microsomes were obtained from BD Biosciences Discovery Labware; tissue BD Biosciences Discovery Labware; host or cells: pooled human liver microsomes", "T7 sequence (P11712 whole entry)": "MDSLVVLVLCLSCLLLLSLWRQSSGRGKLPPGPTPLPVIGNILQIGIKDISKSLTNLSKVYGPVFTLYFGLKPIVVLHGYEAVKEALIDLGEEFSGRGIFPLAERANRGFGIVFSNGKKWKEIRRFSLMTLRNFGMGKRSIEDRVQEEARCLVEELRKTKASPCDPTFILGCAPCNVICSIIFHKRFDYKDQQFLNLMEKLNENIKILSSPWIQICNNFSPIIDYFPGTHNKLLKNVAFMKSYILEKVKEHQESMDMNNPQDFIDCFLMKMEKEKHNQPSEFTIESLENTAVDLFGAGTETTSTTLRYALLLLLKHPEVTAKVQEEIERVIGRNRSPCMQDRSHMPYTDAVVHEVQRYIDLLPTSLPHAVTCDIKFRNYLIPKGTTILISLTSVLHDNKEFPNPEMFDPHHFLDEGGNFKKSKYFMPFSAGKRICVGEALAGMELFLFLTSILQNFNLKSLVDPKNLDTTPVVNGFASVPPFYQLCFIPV", "experiment": "CYP2C9 activity (diclofenac 4'-hydroxylation) in human liver microsomes", "details": "0-100 μM plantainoside D", "method": "as §1, with “system. [table] [table] […] Furthermore, the inhibition model of P450 isoenzymes was estimated in the presence of various concentrations of corresponding substrates and fitting with Lineweaver–Burk and Dixon plots, and the inhibition constant was calculated by the following equations: […]” for “system.”"}, "[8]": {"molecular_target": "T8, CYP2C19 (Homo sapiens, UniProt P33261)", "T8 construct": "Pooled human liver microsomes were obtained from BD Biosciences Discovery Labware; tissue BD Biosciences Discovery Labware; host or cells: pooled human liver microsomes", "T8 sequence (P33261 whole entry)": "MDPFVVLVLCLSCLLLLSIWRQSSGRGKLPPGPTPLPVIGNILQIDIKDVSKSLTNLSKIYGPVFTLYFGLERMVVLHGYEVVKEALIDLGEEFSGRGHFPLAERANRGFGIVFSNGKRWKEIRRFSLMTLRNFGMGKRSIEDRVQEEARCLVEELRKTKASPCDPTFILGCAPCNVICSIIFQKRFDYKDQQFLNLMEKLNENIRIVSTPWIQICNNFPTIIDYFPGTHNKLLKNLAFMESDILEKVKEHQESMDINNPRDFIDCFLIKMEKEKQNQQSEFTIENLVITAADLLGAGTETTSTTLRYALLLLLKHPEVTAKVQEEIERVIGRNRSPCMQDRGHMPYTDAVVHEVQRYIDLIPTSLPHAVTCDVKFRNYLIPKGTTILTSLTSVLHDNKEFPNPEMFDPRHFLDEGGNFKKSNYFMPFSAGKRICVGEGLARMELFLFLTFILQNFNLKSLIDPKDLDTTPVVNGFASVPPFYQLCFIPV", "experiment": "CYP2C19 activity (S-mephenytoin 4-hydroxylation) in human liver microsomes", "details": "0-100 μM plantainoside D", "method": "as §1, with “system. [table] [table] […] Furthermore, the inhibition model of P450 isoenzymes was estimated in the presence of various concentrations of corresponding substrates and fitting with Lineweaver–Burk and Dixon plots, and the inhibition constant was calculated by the following equations: […]” for “system.”"}, "[9]": {"molecular_target": "T9, CYP2E1 (Homo sapiens, UniProt P05181)", "T9 construct": "Pooled human liver microsomes were obtained from BD Biosciences Discovery Labware; tissue BD Biosciences Discovery Labware; host or cells: pooled human liver microsomes", "T9 sequence (P05181 whole entry)": "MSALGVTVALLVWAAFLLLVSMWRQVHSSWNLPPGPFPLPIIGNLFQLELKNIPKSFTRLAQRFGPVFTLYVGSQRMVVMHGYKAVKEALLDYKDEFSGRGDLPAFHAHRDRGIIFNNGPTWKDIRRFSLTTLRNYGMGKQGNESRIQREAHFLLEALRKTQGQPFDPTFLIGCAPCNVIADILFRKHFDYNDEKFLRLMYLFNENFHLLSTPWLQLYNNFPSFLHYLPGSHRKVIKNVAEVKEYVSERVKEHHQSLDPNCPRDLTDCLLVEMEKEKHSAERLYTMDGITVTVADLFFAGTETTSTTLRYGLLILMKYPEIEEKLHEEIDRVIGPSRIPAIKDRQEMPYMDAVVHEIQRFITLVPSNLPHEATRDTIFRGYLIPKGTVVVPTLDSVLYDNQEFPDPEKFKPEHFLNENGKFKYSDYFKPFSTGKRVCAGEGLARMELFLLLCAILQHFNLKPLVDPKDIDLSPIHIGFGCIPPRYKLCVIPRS", "experiment": "CYP2E1 activity (chlorzoxazone 6-hydroxylation) in human liver microsomes", "details": "0-100 μM plantainoside D", "method": "as §1, with “system. [table] [table] […] Furthermore, the inhibition model of P450 isoenzymes was estimated in the presence of various concentrations of corresponding substrates and fitting with Lineweaver–Burk and Dixon plots, and the inhibition constant was calculated by the following equations: […]” for “system.”"}, "[10]": {"molecular_target": "T3, CYP3A", "experiment": "Time-dependent inhibition of CYP3A in human liver microsomes", "method": "A total of 1 mg/mL HLMs were firstly incubated with 20 μM plantainoside D and the NADPH-generating system for 30 min. Then, incubation with 20 μL aliquot was carried out for 0, 5, 10, 15, and 30 min in the presence of substrates concentration close to Km. Additionally, the values of KI and Kinact were evaluated in the presence of substrates approximate to fourfold Km according to the equation: 1/Kobs=KI/Kinact×1/[I]+1/Kinact ."}, "[11]": {"molecular_target": "T1, CYP1A2", "experiment": "Time-dependent inhibition of CYP1A2 in human liver microsomes", "details": "20 μM plantainoside D; incubation 0-30 min; 1 mg/mL HLMs", "method": "(§6) A total of 1 mg/mL HLMs were firstly incubated with 20 μM plantainoside D and the NADPH-generating system for 30 min. Then, incubation with 20 μL aliquot was carried out for 0, 5, 10, 15, and 30 min in the presence of substrates concentration close to Km."}, "[12]": {"molecular_target": "T2, CYP2D6", "experiment": "Time-dependent inhibition of CYP2D6 in human liver microsomes", "details": "20 μM plantainoside D; incubation 0-30 min; 1 mg/mL HLMs", "method": "as §6"}, "[13]": {"details": "Lineweaver-Burk plot, constant Vmax"}, "[14]": {"details": "competitive model, Dixon plot, human liver microsomes"}, "[15]": {"details": "human, human liver microsomes, probe testosterone (6β-hydroxylation)"}}}
{"compound": "O=C(/C=C/c1ccc(O)c(O)c1)OC[C@H]1O[C@@H](OCCc2ccc(O)c(O)c2)[C@H](O)[C@@H](O[C@@H]2O[C@H](CO)[C@@H](O)[C@H](O)[C@H]2O)[C@@H]1O", "note": "[plantainoside D, Plantainoside D]", "values": [{"measurement": "Inhibition model of CYP1A2", "setting": "[1]; [13]", "result": "competitive"}, {"measurement": "Ki", "setting": "[1]; [14]", "result": 6.26, "unit": "µM"}, {"measurement": "IC50", "setting": "[1]; human liver microsomes, 0-100 μM plantainoside D, phenacetin substrate", "result": 12.8, "unit": "µM"}, {"measurement": "Inhibition model of CYP2D6", "setting": "[2]; [13]", "result": "competitive"}, {"measurement": "Ki", "setting": "[2]; [14]", "result": 4.54, "unit": "µM"}, {"measurement": "IC50", "setting": "[2]; human liver microsomes, 0-100 μM plantainoside D, dextromethorphan substrate", "result": 8.39, "unit": "µM"}, {"measurement": "Inhibition model of CYP3A", "setting": "[3]; Lineweaver-Burk plot, constant Km", "result": "non-competitive"}, {"measurement": "IC50", "setting": "[3]; [15]", "result": 14.7, "unit": "µM"}, {"measurement": "Ki", "setting": "[3]; [15]", "result": 7.16, "unit": "µM"}, {"measurement": "Effect on CYP2A6 activity", "setting": "[4]", "result": "no changes"}, {"measurement": "Effect on CYP2B6 activity", "setting": "[5]", "result": "no changes"}, {"measurement": "Effect on CYP2C8 activity", "setting": "[6]", "result": "no changes"}, {"measurement": "Effect on CYP2C9 activity", "setting": "[7]", "result": "no changes"}, {"measurement": "Effect on CYP2C19 activity", "setting": "[8]", "result": "no changes"}, {"measurement": "Effect on CYP2E1 activity", "setting": "[9]", "result": "no changes"}, {"measurement": "Time dependence of CYP3A inhibition", "setting": "[10]; 20 μM plantainoside D, incubation 0-30 min, 1 mg/mL HLMs", "result": "enhanced with the increasing incubation time"}, {"measurement": "kinact", "setting": "[10]; human liver microsomes, 0, 2, 5, 10, 20, 50 μM plantainoside D, substrate about fourfold Km", "result": 0.00065, "unit": "s⁻¹"}, {"measurement": "Time dependence of CYP1A2 inhibition", "setting": "[11]", "result": "no significant changes with time"}, {"measurement": "Time dependence of CYP2D6 inhibition", "setting": "[12]", "result": "no significant changes with time"}]}
